The values below are quoted from earlier work in patent US20070009923A1, “Use of bayesian networks for modeling cell signaling systems” (Massachusetts Institute of Technology, priority 2005, published 2007).

The test system of the data set is PKC isozymes.

Take `Cn1c2ccccc2c2c3c(c4c5ccccc5n(CCC#N)c4c21)CNC3=O` [G06976]: the IC50 was below 8 nM.
